Consider two compounds from patent US20220119868A1, “PROFILING RNA-SMALL MOLECULE BINDING SITES WITH OLIGONUCLEOTIDES” (priority 2018, published 2022).

A word on the Kd: it is the free concentration of one partner at which half of the binding sites on the other are occupied at equilibrium, for simple one-to-one binding. A low value points to tighter binding.

Holding throughout (experiment): In solution, fluorescence-based binding affinity assay
Experiment [1] has as its target RNA motif 5′UCCUU3′/3′AUUA5′ (non-binder). On the procedure:
(§1) Affinity of Selected RNA Motif-Small Molecule Interactions. The affinity of exemplar compounds that have inherent fluorescence was measured. […] . Binding affinities were confirmed using a label-free method, biolayer interferometry.
(§2) where n1 is the size of Population 1 (number of sequencing reads for a given RNA from RNA-seq analysis of the selected library), n2 is the size of Population 2 (number of sequencing reads for the same RNA from RNA-seq analysis of the starting library), p1 is the observed proportion of Population 1 (the number of reads for a given RNA from selected library/total number of reads), and p2 is the observed proportion for Population 2 (the number of reads for the same RNA in the starting library/total number of reads). Generation of Logos and DiffLogos: Zobs corresponding to the highest (enriched) 0.5% and lowest (discriminated against) 0.5% scores were analyzed to generate consensus sequences, or Logos. The resulting list of sequences were converted to position weight matrix (PWM) lists for each compound. “Enriched” and “discriminated” sequences were kept separate using JMP®, Version <13.2.1>. SAS Institute Inc., Cary, N.C., 1989-2007. The R package Difflogo,^16 which is part of Bioconductor, was utilized to create the sequence logos from PWM lists for each compound and visually compare the differences between them. Binding Affinity Measurements. Dissociation constants were determined using an in solution, fluorescence-based assay. […] Serial dilutions (1:2) of the small molecule were then completed in 1× Assay Buffer supplemented with 1 mM MgCl2. The solutions were incubated for 30 min at room temperature, transferred to a 96-well plate, and fluorescence intensity measured on a BioTek-FLx800 plate reader. The change in fluorescence intensity as a function of small molecule concentration was fit to a one site binding model per equation 3: […]
(§3) Effect of compounds on HCV replication. […] Cytotoxicity assays. […] Oligonucleotide profiling of target engagement in vitro. […] Primers can be found in Table 4. […] Inhibition of kinases. […] . Figure S7C).

For experiment [2], the target named is RNA motif 5′UCCAU3′/3′AUCA (non-binder). On the procedure:
as §1, §2, §3

In experiment [3] the target is RNA motif 5′GAG3′/3′C_C5′ (from RNA library C). On the procedure: as §1, §2, §3
Experiment [4] concerns the target RNA motif 5′UGU3′/3′G_A5′ (from RNA library C). On the procedure:
as §1, §2, §3

Experiment [5] addresses RNA motif 5′AAC3′/3′U_G5′ (from RNA library C). On the procedure:
as §1, §2, §3

For experiment [6], the target named is RNA motif 5′UCUAU3′/3′ACCA5′ (from RNA library C). On the procedure:
as §1, §2, §3

Experiment [7] has as its target RNA motif 5′GAU3′/3′C_A5′ (from RNA library C). On the procedure:
as §1, §2, §3

The target in experiment [8] is RNA motif 5′GCU3′/3′C_A5′ (from RNA library C). On the procedure: as §1, §2, §3

SMILES strings stand for the structures.

As for `O=C(Nc1cccc(NC(=O)Nc2cc(C(=O)Nc3ccc(C4=NCCN4)cc3)ccc2C(=O)Nc2ccc(C3=NCCN3)cc2)c1)Nc1cc(C(=O)Nc2ccc(C3=NCCN3)cc2)ccc1C(=O)Nc1ccc(C2=NCCN2)cc1` [Compound 7], the Kd in experiment [1] amounted to 2080 ± 300 nM; in experiment [2], 7200 ± 418 nM; in experiment [3], 410 ± 26 nM; in experiment [4] it was 630 ± 36 nM; in experiment [5] it was 420 ± 41 nM.
Take `O=C(Nc1ccc(C2=NCCN2)cc1)c1cc(C(=O)Nc2ccc(C3=NCCN3)cc2)cc(C(=O)Nc2ccc(C3=NCCN3)cc2)c1` [Compound 8]: the Kd in experiment [6] came out at 5580 ± 440 nM; in experiment [7] it was 600 ± 61 nM; in experiment [8], 450 ± 47 nM.
